Experimental findings from PubChem BioAssay (NCI) are described below.

Among the test systems are K-562 leukemia; RPMI-8226 leukemia; OVCAR-5 ovarian; UACC-62 melanoma; SNB-19 CNS; A498 renal; SK-MEL-5 melanoma; MALME-3M melanoma; SN12C renal; HCT-15 colon.
Assay in all cases: inhibition of tumour cell growth, NCI panel, 48 h

Where “and” joins values, the source holds several entries; their conditions need not be identical. Identical values can stand only once.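 Dose response: 5 concentrations. Exposure: 48 h. Format: 96-well plates. Endpoint: linear interpolation; highest concentration if not reached. GI50 marks 50% less growth. TGI: concentration producing complete growth inhibition.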

As for `COc1cc(OC2OC(C)C(O)C(O)C2O)cc2oc(-c3ccc(O)cc3)c(CC=C(C)C)c(=O)c12` (stereo not drawn), the GI50 with K-562 leukemia is 7.91 µM; in the assay on RPMI-8226 leukemia it was 9.02 µM; in the assay with OVCAR-5 ovarian it was 31.4 µM; in the assay on UACC-62 melanoma, 12.8 µM; in the assay with SNB-19 CNS it was 15.3 µM; in the assay with A498 renal, 29.8 µM. Moreover, the GI50 in the assay with SK-MEL-5 melanoma was 13.6 µM; with MALME-3M melanoma, 15.5 µM; with SN12C renal, 12.3 µM; in the assay with HCT-15 colon, 16.8 µM. Further, the TGI came out at 27.9 µM in the assay on K-562 leukemia; 26.6 µM with RPMI-8226 leukemia; 69.2 µM in the assay on OVCAR-5 ovarian; 31.9 µM in the assay on UACC-62 melanoma; 39.2 µM with SNB-19 CNS; 84.2 µM with A498 renal. Also, the TGI with SK-MEL-5 melanoma came out at 30.9 µM; in the assay with MALME-3M melanoma, 55.5 µM; in the assay with SN12C renal, 45.3 µM; in the assay with HCT-15 colon, 52.1 µM.

On to `Cc1ccc(C(=O)c2oc3ccc4c(C)cc(=O)oc4c3c2C)cc1`, for which the GI50 with K-562 leukemia was 5.53 µM; in the assay with RPMI-8226 leukemia, 7.7 µM; with OVCAR-5 ovarian it was 11.2 µM; in the assay with UACC-62 melanoma, 2.66 µM; with SNB-19 CNS, 5.98 µM; with A498 renal, 10.1 µM. The GI50 was 2.69 µM in the assay on SK-MEL-5 melanoma, 25.7 µM with MALME-3M melanoma, 10.4 µM in the assay on SN12C renal and 0.585 µM in the assay on HCT-15 colon. In addition, the TGI in the assay with K-562 leukemia, in the assay with RPMI-8226 leukemia, in the assay with OVCAR-5 ovarian, in the assay on UACC-62 melanoma, in the assay on SNB-19 CNS and with A498 renal was over 100 µM in each case. Further, the TGI in the assay with SK-MEL-5 melanoma, in the assay with MALME-3M melanoma, with SN12C renal and in the assay on HCT-15 colon was over 100 µM throughout.

As to `C[CH2][Sn]1([CH2]C)[O]C(=O)[O][Sn]([CH2]C)([CH2]C)[O]1`, the GI50 with K-562 leukemia is 13.7 µM; in the assay on RPMI-8226 leukemia it was 17.2 µM; with OVCAR-5 ovarian, over 45.8 µM; in the assay on UACC-62 melanoma, 16.8 µM; in the assay on SNB-19 CNS it was 18.4 µM; in the assay on A498 renal it was 17.7 µM. Further, the GI50 in the assay with SK-MEL-5 melanoma is 21.1 µM; in the assay on MALME-3M melanoma it was 16 µM; in the assay on SN12C renal, over 63.4 µM; in the assay with HCT-15 colon, 25.3 µM. In addition, the TGI in the assay with K-562 leukemia is 78.1 µM; in the assay on RPMI-8226 leukemia, 47.6 µM; with OVCAR-5 ovarian it was over 59.5 µM; in the assay with UACC-62 melanoma it was 32.5 µM; in the assay with SNB-19 CNS it was 33.6 µM; in the assay with A498 renal, 32.1 µM. The TGI with SK-MEL-5 melanoma is 40.8 µM; with MALME-3M melanoma, 29.9 µM; in the assay with SN12C renal, over 100 µM; with HCT-15 colon, over 54.4 µM.

Take `COc1cc2c(cc1C)NC(=O)/C2=C\c1cc(OC)c(OC)c(OC)c1`: the GI50 in the assay on K-562 leukemia is 23.2 µM; with RPMI-8226 leukemia it was over 100 µM; with OVCAR-5 ovarian, 32.2 µM; in the assay with UACC-62 melanoma it was 37.3 µM; with SNB-19 CNS, 91.9 µM; in the assay with A498 renal, 31.1 µM. The GI50 was over 100 µM in the assay on SK-MEL-5 melanoma, 72.3 µM in the assay with MALME-3M melanoma, over 100 µM with SN12C renal and over 100 µM in the assay on HCT-15 colon. The TGI was 70.1 µM with K-562 leukemia; over 100 µM with RPMI-8226 leukemia; over 100 µM with OVCAR-5 ovarian; over 100 µM in the assay with UACC-62 melanoma; over 100 µM in the assay with SNB-19 CNS; over 100 µM in the assay on A498 renal. For the same molecule, the TGI in the assay with SK-MEL-5 melanoma, in the assay with MALME-3M melanoma, in the assay with SN12C renal and with HCT-15 colon was over 100 µM each time.

Regarding `CC(=O)N/C(=C\c1ccc(/C=C(\NC(C)=O)c2nc3ccc(Cl)cc3[nH]2)cc1)c1nc2ccccc2[nH]1`, the TGI in the assay on K-562 leukemia, in the assay on RPMI-8226 leukemia, with OVCAR-5 ovarian, in the assay with UACC-62 melanoma, in the assay on SNB-19 CNS and with A498 renal was over 100 µM each time. Moreover, the TGI in the assay with SK-MEL-5 melanoma, in the assay with MALME-3M melanoma, in the assay on SN12C renal and in the assay with HCT-15 colon was over 100 µM each time.

Consider `O=[N+]([O-])c1ccc2[nH]cc(-c3c4ccsc4cc4[nH]c5ccc([N+](=O)[O-])cc5c34)c2c1`, for which the GI50 with K-562 leukemia is 0.664 µM; in the assay on RPMI-8226 leukemia it was 1.04 µM; in the assay with OVCAR-5 ovarian, 1.29 µM; with UACC-62 melanoma, 0.641 µM; with SNB-19 CNS it was 1.32 µM; in the assay with A498 renal it was 0.726 µM. Besides, the GI50 in the assay on SK-MEL-5 melanoma was 0.394 µM; in the assay with MALME-3M melanoma, 0.898 µM; in the assay on SN12C renal, 1.43 µM; in the assay with HCT-15 colon it was 0.735 µM. Besides, the TGI came to 12.3 µM in the assay with K-562 leukemia; 5.1 µM in the assay on RPMI-8226 leukemia; 7.8 µM in the assay with OVCAR-5 ovarian; 8.01 µM in the assay with UACC-62 melanoma; 9.13 µM in the assay with SNB-19 CNS; 3.13 µM in the assay on A498 renal. The TGI in the assay with SK-MEL-5 melanoma was 2.01 µM; in the assay on MALME-3M melanoma, 9.44 µM; in the assay on SN12C renal, 11.4 µM; with HCT-15 colon it was 9.68 µM.

Take `O=c1ccn(C2OC(CO)C(O)C2O)c(=O)[nH]1` (stereo not drawn): the GI50 in the assay with K-562 leukemia is over 1000 µM; with RPMI-8226 leukemia, over 1000 µM; in the assay with UACC-62 melanoma it was over 1000 µM; with SNB-19 CNS, over 1000 µM; in the assay with SK-MEL-5 melanoma, over 1000 µM; in the assay on MALME-3M melanoma, 740 µM and > 10 µM. In addition, the GI50 with SN12C renal and in the assay with HCT-15 colon was over 1000 µM throughout. For the same molecule, the TGI in the assay with K-562 leukemia, in the assay with RPMI-8226 leukemia, in the assay with OVCAR-5 ovarian, in the assay with UACC-62 melanoma, with SNB-19 CNS and in the assay with A498 renal was over 1000 µM throughout. Moreover, the TGI with SK-MEL-5 melanoma, in the assay on MALME-3M melanoma, with SN12C renal and in the assay on HCT-15 colon was over 1000 µM each time.
